No end group written: not given here.
Legend:
EphB1 [1] = target: T1, EphB1 (Homo sapiens, UniProt P54762); test: Ephrin-B1 Fc-induced EphB1 tyrosine phosphorylation in human aortic endothelial cells; assay type: cell-based; conditions: concentrations up to 200 μM
T1 construct: endogenous EphB1 tyrosine phosphorylation; endogenous in cells; host or cells: human aortic endothelial cells
T1 sequence (P54762 18-984): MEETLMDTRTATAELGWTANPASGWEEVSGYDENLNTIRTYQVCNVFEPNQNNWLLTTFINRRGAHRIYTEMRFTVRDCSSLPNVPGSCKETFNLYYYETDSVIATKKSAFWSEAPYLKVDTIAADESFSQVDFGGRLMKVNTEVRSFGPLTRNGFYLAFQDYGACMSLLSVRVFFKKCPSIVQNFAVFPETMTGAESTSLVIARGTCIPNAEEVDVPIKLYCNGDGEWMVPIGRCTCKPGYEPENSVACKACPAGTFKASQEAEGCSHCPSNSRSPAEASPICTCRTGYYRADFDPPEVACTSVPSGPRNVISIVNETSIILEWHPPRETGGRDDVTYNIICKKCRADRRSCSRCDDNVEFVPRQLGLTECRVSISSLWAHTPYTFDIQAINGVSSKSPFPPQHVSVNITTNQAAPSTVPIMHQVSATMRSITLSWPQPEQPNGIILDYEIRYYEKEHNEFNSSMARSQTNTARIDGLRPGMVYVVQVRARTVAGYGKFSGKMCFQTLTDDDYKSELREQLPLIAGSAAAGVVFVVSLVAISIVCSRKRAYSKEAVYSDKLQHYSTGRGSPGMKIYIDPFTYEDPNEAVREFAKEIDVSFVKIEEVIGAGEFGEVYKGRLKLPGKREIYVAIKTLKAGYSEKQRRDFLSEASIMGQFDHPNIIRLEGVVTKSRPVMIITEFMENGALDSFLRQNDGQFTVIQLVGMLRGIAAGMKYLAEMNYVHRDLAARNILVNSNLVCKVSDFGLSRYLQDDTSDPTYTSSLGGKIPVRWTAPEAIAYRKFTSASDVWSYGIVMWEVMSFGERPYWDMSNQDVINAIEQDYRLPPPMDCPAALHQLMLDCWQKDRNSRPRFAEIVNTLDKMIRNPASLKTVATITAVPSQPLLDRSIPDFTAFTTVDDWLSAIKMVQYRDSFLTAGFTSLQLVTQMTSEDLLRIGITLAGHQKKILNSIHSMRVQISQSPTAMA

EphB1 [2] = target: T2, EphB1 (Homo sapiens, UniProt P54762); test: Inhibition of ephrin-B2 AP binding to immobilized EphB1 ectodomain
T2 construct: panned on the ectodomains of EphB1, EphB2, or EphB4 fused to human Fc
T2 sequence (P54762 18-540 limits assumed): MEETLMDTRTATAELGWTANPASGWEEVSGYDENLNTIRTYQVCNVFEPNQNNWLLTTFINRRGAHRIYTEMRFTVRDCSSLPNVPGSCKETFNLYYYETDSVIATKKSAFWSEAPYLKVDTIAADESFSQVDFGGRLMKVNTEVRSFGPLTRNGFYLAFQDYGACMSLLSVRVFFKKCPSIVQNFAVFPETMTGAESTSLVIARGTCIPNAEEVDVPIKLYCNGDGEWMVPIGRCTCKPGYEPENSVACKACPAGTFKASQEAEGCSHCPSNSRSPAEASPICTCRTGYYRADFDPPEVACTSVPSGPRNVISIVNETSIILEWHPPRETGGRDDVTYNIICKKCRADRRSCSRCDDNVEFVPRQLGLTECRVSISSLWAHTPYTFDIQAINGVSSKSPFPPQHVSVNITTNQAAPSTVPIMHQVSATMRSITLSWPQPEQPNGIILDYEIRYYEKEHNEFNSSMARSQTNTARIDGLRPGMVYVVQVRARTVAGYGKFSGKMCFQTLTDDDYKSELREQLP
Experimental: Peptides that bind to the same receptor region as the ephrins would be expected to inhibit Eph receptor-ephrin association, if they interact with sufficient affinity. A number of synthetic peptides were tested for their ability to inhibit binding of alkaline phosphatase-tagged ephrin-B2 (ephrin-B2-AP) to EphB receptors (FIG. 3). Most of the peptides were synthesized with a biotin tag and immobilized on streptavidin plates to verify their ability to capture the EphB ectodomains used for their isolation.
Ephrin-B2 AP binding to the indicated immobilized EphB receptor ectodomains was measured in the presence of the indicated peptides and detected by measuring alkaline phosphatase activity. […]. […] Wells coated with the different EphB ectodomains were incubated with ephrin-B2 AP and 50 μM of the indicated peptides. Ephrin-B2 AP binding in the presence of peptide was normalized to binding in the absence of peptide. All peptides were biotinylated except for FSPQ and EWYM. […] Therefore, IPWT was not used for further experiments. […]
The GP motif aligns with the GP motif of TNYL and the RAW motif aligns precisely next to the last amino acid of TNYL. […] After several washes, the amount of ephrin-B2-AP bound was quantified using p-nitrophenylphosphate as a substrate. […]

EphB receptors = test: Ephrin-B2 AP binding to different EphB ectodomains in presence of peptide (selectivity); conditions: 50 μM peptide
Experimental: Ephrin-B2 AP binding to the indicated immobilized EphB receptor ectodomains was measured in the presence of the indicated peptides and detected by measuring alkaline phosphatase activity. […] Wells coated with the different EphB ectodomains were incubated with ephrin-B2 AP and 50 μM of the indicated peptides. Ephrin-B2 AP binding in the presence of peptide was normalized to binding in the absence of peptide. All peptides were biotinylated except for FSPQ and EWYM. […] The EWYM, TWO, and FSPQ peptides were not synthesized with a biotin tag and therefore were tested directly for inhibition of ephrin-B2 binding.
Ephrin-B2 AP was co-incubated for 1 hr with different peptide concentrations in Ni-NTA wells coated with 1 μg/ml Eph receptor Fc. After several washes, the amount of ephrin-B2-AP bound was quantified using p-nitrophenylphosphate as a substrate. Alkaline phosphatase activity from wells without EphB Fc was subtracted as background. […] In these experiments, the two peptides are not biotinylated. […] Ephrin-B2-AP binding in the presence of peptide was normalized to binding in the absence of peptide in (A) and (B).

In the case of EWLSPNLAPSVR [SEQ ID NO 1], the “Inhibition of endogenous EphB1 tyrosine phosphorylation” value (EphB1 [1]) was “did not inhibit endogenous EphB1 tyrosine phosphorylation”, the “Inhibition of ephrin-B2 AP binding to EphB1 (in words)” value (EphB1 [2]) was “inhibited ephrin binding to EphB1” and the “Selectivity of antagonism of ephrin-B2 AP binding across EphB ectodomains” value (EphB receptors) was “selective”.

Source: US7999069B2, “EphB receptor-binding peptides” (Sanford-Burnham Medical Research Institute, priority 2005, dated 2011)
